Where a name gives a salt, the structure may show the parent alone. ± gives the uncertainty stated by the source.
Assays:
[1] = tested on: Klebsiella pneumoniae ATCC 13882; assay: final pH-related absorbance (A557-A630) after 24 h (absorbance units); higher = more ureolysis; extreme values may be limits of the assay
Experimental: (§1)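 Klebsiella pneumoniae ATCC 13882 (start OD600 0.05) grown in M9U medium with 40 mM urea and phenol red plus inhibitor, in triplicate in 96-well plates. A557 and OD630 were read every 15 min for 24 h. Ureolysis was followed as the pH-related A557-A630: onset time, Gompertz-fit rate and final value. Growth was followed as OD630.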

[2] = tested on: Klebsiella pneumoniae ATCC 13882; assay: final OD630 (growth) after 24 h; higher = more bacterial growth; extreme values may be limits of the assay
Experimental: as §1

[3] = tested on: Klebsiella pneumoniae ATCC 13882; assay: rate of pH (A557-A630) increase, Gompertz fit (10^-4 s-1); higher = faster ureolysis; extreme values may be limits of the assay
Experimental: as §1

[4] = tested on: Klebsiella pneumoniae ATCC 13882; assay: onset of ureolytic pH increase; higher = more delayed ureolysis (inhibition)
Experimental: as §1

SMILES: S=C=S [Carbon disulfide]
- final pH-related absorbance ([1]; 0.0285 mM): 0.169 ± 0.0022
- final pH-related absorbance ([1]; 0.285 mM): 0.175 ± 0.0006
- final pH-related absorbance ([1]; 2.85 mM): 0.175 ± 0.0058
- final OD630 ([2]; 0.0285 mM): 0.416 ± 0.0039
- final OD630 ([2]; 0.285 mM): 0.428 ± 0.0051
- final OD630 ([2]; 2.85 mM): 0.419 ± 0.0062
- rate of pH ([3]; 0.0285 mM): 1.547 ± 0.011
- rate of pH ([3]; 0.285 mM): 1.537 ± 0.0055
- rate of pH ([3]; 2.85 mM): 1.561 ± 0.0093
- onset of ureolytic pH increase ([4]; 0.0285 mM): 10.26 ± 0.0115 h
- onset of ureolytic pH increase ([4]; 0.285 mM): 10.2 ± 0.0433 h
- onset of ureolytic pH increase ([4]; 2.85 mM): 10.24 ± 0.07 h

SMILES: CN(CC(=O)O)C(=N)N [Creatine monohydrate]
- final pH-related absorbance ([1]; 0.0026 mM): 0.217 ± 0.0008
- final pH-related absorbance ([1]; 0.026 mM): 0.22 ± 0.0025
- final pH-related absorbance ([1]; 0.26 mM): 0.22 ± 0.0028
- final OD630 ([2]; 0.0026 mM): 0.503 ± 0.012
- final OD630 ([2]; 0.026 mM): 0.496 ± 0.0032
- final OD630 ([2]; 0.26 mM): 0.497 ± 0.0049
- rate of pH ([3]; 0.0026 mM): 1.73 ± 0.023
- rate of pH ([3]; 0.026 mM): 1.73 ± 0.059
- rate of pH ([3]; 0.26 mM): 1.78 ± 0.032
- onset of ureolytic pH increase ([4]; 0.0026 mM): 9.537 ± 0.0367 h
- onset of ureolytic pH increase ([4]; 0.026 mM): 9.59 ± 0.147 h
- onset of ureolytic pH increase ([4]; 0.26 mM): 9.419 ± 0.0783 h

SMILES: CN1CC(=O)NC1=N [Creatinine]
- final pH-related absorbance ([1]; 0.1 mM): 0.146 ± 0.0004
- final pH-related absorbance ([1]; 1 mM): 0.158 ± 0.0061
- final pH-related absorbance ([1]; 10 mM): 0.157 ± 0.005
- final OD630 ([2]; 0.1 mM): 0.505 ± 0.0042
- final OD630 ([2]; 1 mM): 0.495 ± 0.013
- final OD630 ([2]; 10 mM): 0.517 ± 0.0028
- rate of pH ([3]; 0.1 mM): 2.186 ± 0.011
- rate of pH ([3]; 1 mM): 2.17 ± 0.023
- rate of pH ([3]; 10 mM): 2.19 ± 0.038
- onset of ureolytic pH increase ([4]; 0.1 mM): 9.588 ± 0.07 h
- onset of ureolytic pH increase ([4]; 1 mM): 9.675 ± 0.0283 h
- onset of ureolytic pH increase ([4]; 10 mM): 9.58 ± 0.14 h

SMILES: NCCS [Cysteamine hydrochloride]
- final pH-related absorbance ([1]; 0.1 mM): 0.256 ± 0.0053
- final pH-related absorbance ([1]; 1 mM): 0.246 ± 0.0058
- final pH-related absorbance ([1]; 10 mM): 0.097 ± 0.0002
- final OD630 ([2]; 0.1 mM): 0.5 ± 0.0053
- final OD630 ([2]; 1 mM): 0.487 ± 0.0016
- final OD630 ([2]; 10 mM): 0.447 ± 0.0027
- rate of pH ([3]; 0.1 mM): 1.44 ± 0.07
- rate of pH ([3]; 1 mM): 0.893 ± 0.012
- rate of pH ([3]; 10 mM): 0.736 ± 0.0043
- onset of ureolytic pH increase ([4]; 0.1 mM): 8.51 ± 0.103 h
- onset of ureolytic pH increase ([4]; 1 mM): 10.12 ± 0.02 h
- onset of ureolytic pH increase ([4]; 10 mM): 15.19 ± 0.0183 h

SMILES: O=C(O)CN(CCN(CC(=O)O)CC(=O)O)CCN(CC(=O)O)CC(=O)O [Diethylenetriaminepentaacetic acid]
- final pH-related absorbance ([1]; 0.004 mM): 0.196 ± 0.016
- final pH-related absorbance ([1]; 0.036 mM): 0
- final pH-related absorbance ([1]; 0.364 mM): 0
- final OD630 ([2]; 0.004 mM): 0.439 ± 0.001
- final OD630 ([2]; 0.036 mM): 0.311 ± 0.003
- final OD630 ([2]; 0.364 mM): 0.21 ± 0.005
- rate of pH ([3]; 0.004 mM): 2.08 ± 0.049
- rate of pH ([3]; 0.036 mM): 0
- rate of pH ([3]; 0.364 mM): 0
- onset of ureolytic pH increase ([4]; 0.004 mM): 9.47 ± 0.183 h
- onset of ureolytic pH increase ([4]; 0.036 mM): > 15 h
- onset of ureolytic pH increase ([4]; 0.364 mM): > 15 h

SMILES: NCCNCCNCCN [Triethylenetetraamine]
- final OD630 ([2]; 0.1 mM): 0.448 ± 0.091
- final OD630 ([2]; 1 mM): 0.384 ± 0.017
- final OD630 ([2]; 10 mM): 0

From the supplement of paper PMC7244745
